In patent publication US9409888B2, “Dimeric compounds” (priority 2012, dated 2016) one finds IC50 data, which are given here for four compounds.

The target of one assay is BIR3 domain of XIAP (Homo sapiens (Human), UniProt P98170). Description: TR-FRET assay for BIR3: inhibition of binding of XIAP BIR3 domain to Peptide A (SMAC-derived peptide). The following applies: 6× His-tagged BIR3 domain (aa 241-356 of XIAP) 10 nM, Peptide A 20 nM. (In TR-FRET formats the signal depends on donor and acceptor labels being close together.)
In the next assay the target is BIR2 domain of XIAP (Homo sapiens (Human), UniProt P98170, C202A/C213G). Description: TR-FRET assay for BIR2: inhibition of binding of XIAP BIR2 domain to Peptide A (SMAC-derived peptide). The following applies: 6× His-tagged BIR2 domain (aa 124-240 of XIAP) 10 nM, Peptide A 20 nM. The protocol:
TR-FRET Assay for BIR2 and BIR3
The peptides were labeled with the fluorescent tags FITC or TAMRA and Kd values were determined by fluorescence polarization assay. […] The peptide sequence was derivatized with biotin to provide […]-(ε-biotin)-OH 1:2 TFA as the substrate for the TR-FRET assay.
The XIAP protein sequence was obtained from the SWISS-PROT protein sequence database and the BIR2 and BIR3 domains were derived from that. The sequence of the BIR2 domain used for the TR-FRET assay is […].
Time-resolved fluorescence resonance energy transfer (TR-FRET) signals were measured 1 hour later at room temperature. Test compound potency was assessed at 10 serially diluted concentrations. Percentage of inhibition at each concentration was determined to generate an IC50 value for each test compound.

Sequence of BIR2 domain of XIAP (P98170 other isoform, or with tags, fused parts or gaps, stated change not applied): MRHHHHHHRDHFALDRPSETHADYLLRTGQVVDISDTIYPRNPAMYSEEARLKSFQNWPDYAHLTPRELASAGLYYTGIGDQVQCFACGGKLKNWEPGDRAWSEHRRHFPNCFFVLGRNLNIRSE
Sequence of BIR3 domain of XIAP (P98170 other isoform, or with tags, fused parts or gaps): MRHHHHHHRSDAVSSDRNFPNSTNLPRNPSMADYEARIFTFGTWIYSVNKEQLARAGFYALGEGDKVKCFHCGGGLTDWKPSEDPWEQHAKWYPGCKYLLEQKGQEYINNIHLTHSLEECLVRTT

Consider `CN[C@@H](C)C(=O)N[C@H]1CN(C(=O)c2cncc(C(=O)N3C[C@H](NC(=O)[C@H](C)NC)C(=O)N(Cc4c(OC)ccc5cc(Br)ccc45)c4ccccc43)c2)c2ccccc2N(Cc2c(OC)ccc3cc(Br)ccc23)C1=O` [Ex 8, (2S)-N-[(3S)-5-[(6-Bromo-2-methoxy-1-naphthyl)methyl]-1-[5-[(3S)-5-[(6-bromo-2-methoxy-1-naphthyl)methyl]-3-[[(2S)-2-(methylamino)propanoyl]amino]-4-oxo-2,3-dihydro-1,5-benzodiazepine-1-carbonyl]pyridine-3-carbonyl]-4-oxo-2,3-dihydro-1,5-benzodiazepin-3-yl]-2-(methylamino)propanamide], for which the IC50 (usually the concentration that gives 50% inhibition) was greater than 5.48 µM on BIR3 domain of XIAP and 1.32 nM on BIR2 domain of XIAP.
Take `CN[C@@H](C)C(=O)N[C@H]1CN(C(=O)c2cc(C)c(C(=O)N3C[C@H](NC(=O)[C@H](C)N)C(=O)N(Cc4c(OC)ccc5cc(Br)ccc45)c4ccccc43)cc2C)c2ccccc2N(Cc2c(OC)ccc3cc(Br)ccc23)C1=O` [Ex 13, (2S)-2-Amino-N-[(3S)-5-[(6-bromo-2-methoxy-1-naphthyl)methyl]-1-[4-[(3S)-5-[(6-bromo-2-methoxy-1-naphthyl)methyl]-3-[[(2S)-2-(methylamino)propanoyl]amino]-4-oxo-2,3-dihydro-1,5-benzodiazepine-1-carbonyl]-2,5-dimethyl-benzoyl]-4-oxo-2,3-dihydro-1,5-benzodiazepin-3-yl]propanamide]: the figures for the IC50 at BIR3 domain of XIAP and on BIR2 domain of XIAP were greater than 5.48 µM and 0.801 nM, respectively.
For `CN[C@@H](C)C(=O)N[C@H]1CN(C(=O)CCCCCCC(=O)N2C[C@H](NC(=O)[C@H](C)NC)C(=O)N(Cc3c(OC)ccc4cc(Br)ccc34)c3ccccc32)c2ccccc2N(Cc2c(OC)ccc3cc(Br)ccc23)C1=O` [Ex 18, (2S)-N-[(3S)-5-[(6-Bromo-2-methoxy-1-naphthyl)methyl]-1-[8-[(3S)-5-[(6-bromo-2-methoxy-1-naphthyl)methyl]-3-[[(2S)-2-(methylamino)propanoyl]amino]-4-oxo-2,3-dihydro-1,5-benzodiazepin-1-yl]-8-oxo-octanoyl]-4-oxo-2,3-dihydro-1,5-benzodiazepin-3-yl]-2-(methylamino)propanamide], the IC50 at BIR3 domain of XIAP was greater than 5.48 µM; on BIR2 domain of XIAP, 0.871 nM.
`CN[C@@H](C)C(=O)N[C@H]1CN(C(=O)c2ccc(C(=O)N3C[C@H](NC(=O)[C@H](C)NC)C(=O)N(Cc4c(OC)ccc5cc(Br)ccc45)c4ccccc43)c(C)c2)c2ccccc2N(Cc2c(OC)ccc3cc(Br)ccc23)C1=O` [Ex 10, (2S)-N-[(3S)-5-[(6-Bromo-2-methoxy-1-naphthyl)methyl]-1-[4-[(3S)-5-[(6-bromo-2-methoxy-1-naphthyl)methyl]-3-[[(2S)-2-(methylamino)propanoyl]amino]-4-oxo-2,3-dihydro-1,5-benzodiazepine-1-carbonyl]-3-methyl-benzoyl]-4-oxo-2,3-dihydro-1,5-benzodiazepin-3-yl]-2-(methylamino)propanamide]: the IC50 is greater than 5.48 µM at BIR3 domain of XIAP and 1.38 nM on BIR2 domain of XIAP.
